≈ marks a conversion by molar mass, not a printed value. Blank lines part the entries; values can stand above or below the compound they belong to. Calls of active or inactive are those of the source. No cut-off for these calls is given here.
Key:
HT-29 = test: Cytotoxicity against human HT29 cells after 7 days by MTT assay; type: functional; details: HT-29, 168 h, read-out: ED50 (the source's name)
[1] = Toxicity in brine shrimp; type: organism-based; details: artemia, in vivo
MCF7 = test: Cytotoxicity against human MCF7 cells after 7 days by MTT assay; type: functional; details: MCF7, 168 h, read-out: ED50 (the source's name)
Echinochloa crus-galli = test: Phytogrowth-inhibitory activity against Echinochloa crus-galli assessed as inhibition of seedling germination by petri dish bioassay; type: functional, organism-based
[2] = system: Amaranthus hypochondriacus; test: Phytogrowth-inhibitory activity against Amaranthus hypochondriacus assessed as inhibition of seedling growth petri dish bioassay; type: functional, organism-based
Candida albicans = test: Antimicrobial activity against Candida albicans ATCC 10231 by agar dilution method; type: functional, organism-based
A549 = test: Cytotoxicity against human A549 cells after 7 days by MTT assay; type: functional; details: A549, 168 h, read-out: ED50 (the source's name)
Aspergillus niger = test: Antimicrobial activity against Aspergillus niger ATCC 16888 by agar dilution method; type: functional, organism-based
[3] = system: Trichophyton mentagrophytes; test: Antimicrobial activity against Trichophyton mentagrophytes ATCC 9129 by agar dilution method; type: functional

SMILES: COC(C)(C)/C=C/c1cc(C(C)=O)ccc1O[C@@H]1O[C@H](CO)[C@@H](O)[C@H](O)[C@H]1O
- EC50 (HT-29): 61 µg/mL (≈ 154 µM)
- LC50 [1]: > 1000 µg/mL
- EC50 (MCF7): 44 µg/mL (≈ 111 µM)
- IC50 (Echinochloa crus-galli): 231 µg/mL (≈ 583 µM)
- IC50 [2]: 148 µg/mL (≈ 373 µM)
- Activity (Candida albicans): inactive
- EC50 (A549): 6 µg/mL (≈ 15.1 µM)
- Activity (Aspergillus niger): inactive

SMILES: C=C(C)[C@H]1Cc2cc(C(C)=O)c(OC)cc2O1
- EC50 (HT-29): 16 µg/mL (≈ 68.9 µM)
- LC50 [1]: 8 µg/mL (≈ 34.4 µM)
- EC50 (MCF7): 33 µg/mL (≈ 142 µM)
- IC50 (Echinochloa crus-galli): 68 µg/mL (≈ 293 µM)
- IC50 [2]: 11 µg/mL (≈ 47.4 µM)
- Activity (Candida albicans): inactive
- EC50 (A549): 1 µg/mL (≈ 4.31 µM)
- Activity (Aspergillus niger): inactive

SMILES: C=C(C)[C@@H]1Oc2cc(O)c(C(C)=O)cc2[C@H]1OC
- EC50 (HT-29): 16 µg/mL (≈ 64.4 µM)
- LC50 [1]: 68 µg/mL (≈ 274 µM)
- EC50 (MCF7): 34 µg/mL (≈ 137 µM)
- IC50 (Echinochloa crus-galli): 323 µg/mL (≈ 1300 µM)
- IC50 [2]: 61 µg/mL (≈ 246 µM)
- Activity (Candida albicans): inactive
- EC50 (A549): 31 µg/mL (≈ 125 µM)
- Activity (Aspergillus niger): inactive

SMILES: CC(=O)c1cc2c(cc1O)OC(C)(C)C=C2 [DEMETHYLENCECALIN]
- EC50 (HT-29): 2 µg/mL (≈ 9.16 µM)
- MIC [3]: 58 µg/mL (≈ 266 µM)
- LC50 [1]: 31 µg/mL (≈ 142 µM)
- EC50 (MCF7): 2 µg/mL (≈ 9.16 µM)
- IC50 (Echinochloa crus-galli): 79 µg/mL (≈ 362 µM)
- IC50 [2]: 27 µg/mL (≈ 124 µM)
- Activity (Candida albicans): inactive
- EC50 (A549): 10 µg/mL (≈ 45.8 µM)
- Activity (Aspergillus niger): inactive

SMILES: COc1cccc2c1C(=O)c1c(O)c3c(c(O)c1C2=O)C[C@@](O)(C(=O)CO)C[C@@H]3O[C@H]1C[C@H](N)[C@H](O)[C@H](C)O1 [DOXORUBICIN]
- EC50 (HT-29): 0.04 µg/mL (≈ 0.0736 µM)
- EC50 (MCF7): 0.02 µg/mL (≈ 0.0368 µM)
- EC50 (A549): 0.002 µg/mL (≈ 0.00368 µM)

SMILES: COc1cc2c(cc1C(C)=O)C=CC(C)(C)O2 [ENCECALIN]
- EC50 (HT-29): 18 µg/mL (≈ 77.5 µM)
- LC50 [1]: 31 µg/mL (≈ 133 µM)
- EC50 (MCF7): 29 µg/mL (≈ 125 µM)
- IC50 (Echinochloa crus-galli): 6 µg/mL (≈ 25.8 µM)
- IC50 [2]: 7 µg/mL (≈ 30.1 µM)
- Activity (Candida albicans): inactive
- EC50 (A549): 25 µg/mL (≈ 108 µM)
- Activity (Aspergillus niger): inactive

SMILES: C=C(C)c1cc2cc(C(C)=O)c(O)cc2o1 [EUPARIN]
- EC50 (HT-29): 6 µg/mL (≈ 27.7 µM)
- MIC [3]: 29 µg/mL (≈ 134 µM)
- LC50 [1]: 44 µg/mL (≈ 203 µM)
- EC50 (MCF7): 6 µg/mL (≈ 27.7 µM)
- IC50 (Echinochloa crus-galli): 252 µg/mL (≈ 1170 µM)
- IC50 [2]: 111 µg/mL (≈ 513 µM)
- Activity (Candida albicans): inactive
- EC50 (A549): 22 µg/mL (≈ 102 µM)
- Activity (Aspergillus niger): inactive

- MIC [3]: 2.6 µg/mL (≈ 7.37 µM)
SMILES: COC1=CC(=O)C[C@@H](C)[C@]12Oc1c(Cl)c(OC)cc(OC)c1C2=O [GRISEOFULVIN]

SMILES: CCCCC[C@H]1CCCCCCCCCC(=O)O[C@H]2[C@H](O)[C@@H](CO)O[C@@H](O[C@H]3[C@H](O1)O[C@H](C)[C@H](O)[C@@H]3O)[C@@H]2O[C@@H]1O[C@@H](C)[C@H](OC(=O)[C@@H](C)CC)[C@@H](O[C@@H]2O[C@@H](C)[C@H](O)[C@@H](O)[C@H]2O)[C@H]1OC(=O)[C@@H](C)CC [TRICOLORIN A]
- IC50 (Echinochloa crus-galli): 68 µg/mL (≈ 66.5 µM)
- IC50 [2]: 11 µg/mL (≈ 10.8 µM)

Reference: ChEMBL document CHEMBL1158240, “Phytogrowth-inhibitory and antifungal constituents of Helianthella quinquenervis” (J Nat Prod, 1996)
